EP0610377B1, “TRI-SUBSTITUTED TETRAHYDROFURAN ANTIFUNGALS” (SCHERING CORPORATION, priority 1991, dated 1993)

Experiments:
Assay type in all cases: in vivo
Aspergillus flavus [1] = assay: Aspergillus flavus pulmonary infection model in compromised mice, oral treatment
Text: The in vivo oral antifungal activity of the compounds of Example 23-26 were compared to those of itraconazole, fluconazole and saperconazole in an Aspergillus pulmonary infection model in mice. The procedure of David Loebenberg et al. entitled "Sch 42427, The Active Enantiomer of Antifungal agent Sch 39304: In Vitro and In Vivo Activity" Antimicrobial Agents and Chemotherapy (1992), 36 498-501 was used. The Aspergillus flavus pulmonary model was run in the following manner Male, CF-1 mice weighing 20 grams were compromised with cortisone acetate (100 mg/kg), administered subcutaneously, once daily for 3 days. In addition, to prevent bacterial disease, tetracycline HCL (300 mg/1) was added to the drinking water and given ad libitum. On day 2 of compromising, mice were infected in an inhalation chamber, first described by Piggot and Emmons in 1960 and modified by us. The chamber is a 1 liter pyrex, thick-walled flask with 8 tubular side-arms that extend into the flask. Each side-arm is a pyrex tube of 14 cm length, constricted to a 1 cm opening inside the flask. The bottom of the flask was covered with a malt extract agar medium on which a sporulating culture of A. flavus ATCC 24133 was grown for 13 days at room temperature. The top of the flask was closed with a #10 stopper through which passed a glass tube attached by rubber tubing to a 60 mL syringe. Mice were placed in each of the side arms and pushed to the bottoms so that their nares extended beyond the open end of the tube and over the agar. Cotton plugs were then inserted behind the mice to hold them in place. By pumping the 60 mL syringe twice, air was forced over the culture and produced a cloud of spores. Mice were exposed to the spore cloud for one minute. Within 15-30 minutes after exposure, a number of mice were sacrificed and lung tissue samples homogenized for culture to determine the number of inhaled conidia. Oral treatment began 24 h post-infection with doses of 5 to 250 mg of drug/kg in ethanol; vehicle (115 ml of Emulphor EL-719P, GAF, Wayne, NJ; and 5 ml of 20% w/v lactic acid per liter of water), 10:90 v/v, once daily for 4 days.
The procedure of Example 31 was used to compare the in vivo oral antifungal activity of (±)-5R/S-(cis)-4-[4-[4-[4-[[5-(2,4-difluorophenyl)-5-(1H-1,2,4-triazol-1-ylmethyl) tetrahydrofuran-3-yl]methoxy-phenyl-1-piperazinyl]phenyl]-2,4-dihydro-2[(R/S)-(1-methylpropyl)]-3H-1,2,4-triazol-3-one with (±)-2R/S-(cis)-1-[4-[[2-(2,4-difluorophenyl)-2-(1H-1,2,4-triazol-1-ylmethyl) tetrahydro-4-furanyl]methoxy]phenyl]-4-(1-methylethyl)piperazine of Example 68 of USP 5,039,676 in an Aspergillus pulmonary infection model described in Example 31. […]
The procedures of Examples 31 and 34 were used.

Candida = Candida vaginal infection in a hamster model; conditions: result in words
C. albicans C-65 = assay: Candida systemic model in normal and compromised CF1 mice infected with C. albicans C-65, oral treatment; conditions: normal and compromised mice; result in words (text refers to Tables II and V)
Description: (§1) The compounds of Examples 23-26 and itraconazole, fluconazole, and saperconazole were tested for in vivo oral antifungal activity in a Candida systemic model using CF1 male mice , average weight 20 g, Harlan Sprague Dawley, Inc., Indianapolis, Ind. infected by IV injection into the tail vein of C. albicans C-43 (5 million CFUs). The drugs were dissolved in polyethylene glycol-200 (PEG-200) and tested by orally administering 50, 25 and 10 mpk of each drug 4 hours post infection and once daily for 3 more days. Oral efficacy was measured after four (4) days by percent survival and by the number of organisms remaining in the kidneys i.e., the Colony Forming Units (CFUs). The mice were sacrificed and the kidneys of individual mice were homogenized in sterile saline, diluted and spread onto Mycosel agar. Colony counts were determined after 48 hours at 37°C. For calculation of geometric means, mice that died during the experiment were considered to have 10^9 CFUs/kidneys (based on numerous previous experiments).
The compounds of Examples 23-24 and itraconazole, fluconazole, were tested for in vivo oral antifungal anctivity in a Candida systemic model using normal and compromised CF1 mice infected with C. albicans C-65 (5 million CFUs). The procedure of Example 33 was followed. The drugs were dissolved in polyethylene glycol-200 ("PEG-200) at room temperature and tested by orally administering 100, 50, 25, 10 and 1 mpk of each drug. Oral efficacy was measured by percent survival and by the number of organisms remaining in the kidneys (CFUs) after four days. […] The pharmaceutical composition of the preferred compound of formula IIb of Eample 24 in hydroxypropyl beta cyclodextrin ("HPβCD") having 7.4 hydroxypropyl groups per HPβCD (obtained from Pharmatec, Inc., Alachua, FL 32615) was prepared by admixing the appropriate amount of the compound IIa with a 40% (w/v) solution of HPβCD (4 g of HPβCD per 10 mL of purified water). Gentle heating was used to form a clear solution. For the 10 mpk dose, 12 mg of Ha was added to 6 mL of a 40% w/v solution of HPβCD. For dilutions, sterile water was added to the solution with mixing. The pharmaceutical composition of itraconazole and the Pharmatec HPβCD described above was prepared as follows. Propylene glycol (10 mL) was admixed with 0.95 mL of concentrated HCI at 40°-45°C with stirring. Itraconazole (2.5 g) was added thereto and stirring was continued until homogeneous. The mixture so formed was cooled to 20° to 30°C and admixed with a solution of 60 g of HPβCD in 40 mL of purified water to form a clear solution. The pH was adjusted to a value of 1.9-2.1 with 10N NaOH and sufficient purified water added (with mixing) to a final volume of 100 mL. For dilutions, sterile water was added to the itraconazole - HPβCD.

Aspergillus flavus [2] = assay: Aspergillus flavus pulmonary infection model in compromised mice, oral treatment; conditions: head prints 50 mg/kg (third dose column, c3), in PEG-200 daily for 4 days; CF-1 mice
C. albicans C-43 = assay: Candida systemic model in CF1 mice infected IV with C. albicans C-43, oral treatment
Description: as §1, with “The drugs were dissolved in polyethylene glycol-200 (PEG-200) and tested by orally administering 50, 25 and 10 mpk of each drug 4 hours post infection and once daily for 3 more days.” left out

Structure (SMILES) | oral activity against Aspergillus flavus pulmonary infections compared with itraconazole, fluconazole and saperconazole (Aspergillus flavus [1]; in vivo mouse model, PO, result in words) | activity against a Candida vaginal infection compared with itraconazole and saperconazole (Candida) | activity against systemic candidiasis compared with itraconazole and saperconazole (C. albicans C-65) | PERCENT SURVIVAL AFTER 5 DAYS (5D) (Aspergillus flavus [2]) | %SURVIVAL (C. albicans C-43; 50 MPK PO in PEG-200, 1 a day x 4 days, day 4 post-infection) [%] | CFUs (GM) (C. albicans C-43; 50 MPK PO in PEG-200, day 4, geometric mean of the logarithms of CFU remaining in the kidneys (dead mice counted as 10^9)) | %SURVIVAL (Aspergillus flavus [1]; 100 mg/kg PO once a day for 4 days, 18 days post infection, compromised CF-1 mice) [%] | %ANIMALS NEG (Aspergillus flavus [1]; 100 mg/kg PO once a day for 4 days, 18 days post infection, negative = <10 colonies) [%]
CCC(CC)n1ncn(-c2ccc(N3CCN(c4ccc(OC[C@@H]5CO[C@@](Cn6cncn6)(c6ccc(F)cc6F)C5)cc4)CC3)cc2)c1=O [IIc] | more active orally | more active | more active |  |  |  |  | 
CCC(C)n1ncn(-c2ccc(N3CCN(c4ccc(OC[C@H]5CO[C@](Cn6cncn6)(c6ccc(F)cc6F)O5)cc4)CC3)cc2)c1=O (some centres unmarked) [Saperconazole, reference compound] |  |  |  | 50 | 20 | 8.20 | 0 | 0
